Measurements from US11931332B2, “Phenyl alkyl carbamate compounds for use in preventing or treating neurodegenerative disease” (priority 2020, dated 2024).

Columns and labels:
[1] = system: Tyrosine hydroxylase (TH); test: Western blotting of tyrosine hydroxylase (TH) in ventral midbrain protein of rotenone mice; format: in vivo, C57BL/6 mice; settings: rotenone 30 mg/kg orally, Example 124 40 mg/kg IP once a day for 35 days, FIG. 3(C-D)
Procedure: (§1) Mice were randomly divided into four groups: • Group 1: vehicle control mice, • Group 2: Compound of Example 124—treated mice, • Group 3: rotenone treated mice, • Group 4: Compound of Example 124—rotenone treated mice.
(§2) Rotenone was suspended in 0.5% Carboxymethyl cellulose (CMC) sodium salt. Compound of Example 124 were dissolved in Tween 80. 0.5% CMC and Rotenone (30 mg/kg) were administered orally, the compound of Example 124 (40 mg/kg) was injected intraperitoneally (IP) once a day for 35 days (5 weeks).
(§3) Whole ventral midbrain was homogenized with RIPA buffer containing 1% Triton X 100, 0.5% deoxycholic acid, 0.2% SDS, 150 mM NaCl, 2 mM EDTA, protease inhibitors (PMSF, Aprotinin, NaF, Na3VO4). The homogenate was centrifuged at 13,000 rpm for 30 min on a rotator and the supernatant was used [Vergara, C., et al., Amyloid-beta pathology enhances pathological fibrillary tau seeding induced by Alzheimer PHF in vivo. Acta Neuropathol, 2019. 137(3): p. 397-412.]. Proteins were separated using SDS-PAGE with a concentration gradient of 8-20% SDS gels and transferred onto PVDF membranes (Immobilon P membrane, Millipore). Membranes blocked in 5% skim milk in TBST (Tris-Buffered saline-Tween®20) and immunolabeled with primary antibody, rabbit anti-tyrosine hydroxylase (TH) antibody (1:5000)). […]
(§4) Western blot data were analyzed using a t-test(1-tailed t-test). […]

[2] = system: rotenone-induced Parkinson's disease model mice; test: Foot printing assay (stride length) in rotenone-induced Parkinson's disease model mice; format: in vivo, C57BL/6 mice; settings: rotenone 30 mg/kg orally, Example 124 40 mg/kg IP once a day for 35 days
Procedure: (§5) C57BL/6 mice (n=61) were purchased from Samtako bio korea Co. Ltd (Osan, Korea.) Mice were housed in the room which offers 12 hours light/dark cycle with a temperature of 20˜22° C.
as §1, §2
(§6) In the present invention, in order to confirm whether the compound of Example 124 (compound 124) improves the motor abnormalities found in rotenone-induced Parkinson's disease model mice, rota-rod test, pole test, and foot printing assay test were performed.
Foot printing assay was performed using the Parkinson's disease model mice of Biological Experiment Example 1 as follows. Mice paws were dipped with non-toxic water paints (forelimbs in green and hind limbs in blue). Mice were placed in the corner of the enclosed maze with white paper lined through the maze and allowed to walk along the maze freely. […] Fore limb-stride length and hind limb-stride length were measured using ImageJ (NIH).

[3] = system: Phosphorylated alpha-synuclein (s129); test: Double immunostaining for TH and p-α-synuclein, inclusions in cell bodies of TH+ neurons of rotenone mice; format: in vivo, C57BL/6 mice; settings: rotenone 30 mg/kg orally, Example 124 40 mg/kg IP once a day for 35 days; FIG. 5(A-B)
Procedure: as §1, §2
Specifically, mice of Biological Experiment Example 1 were anesthetized with sevoflurane and perfused with PBS (phosphate-buffered saline). After perfusion, dissected the left hemisphere of the brain from the mice and fixed the right hemisphere brain with 4% PFA for 1 day [Shin, S. J., et al., Jowiseungchungtang Inhibits Amyloid-beta Aggregation and Amyloid-beta-Mediated Pathology in 5XFADMice. Int J Mol Sci, 2018. 19(12).]. The frozen brain was sectioned in the coronal way (30 μm thick) using a cryostat (Leica CM3000, Leica Microsystems, Nussloch, Germany). Sections were stored at deep freezer (−70° C.) until the immunohistochemistry analysis starts.
In all immunofluorescence labeling procedures, rinsed off the brain sections and blocked the tissues with cold PBST (0.1% Triton X-100 in PBS) containing 5% BSA and 5% goat serum at room temperature. […]

[4] = system: Amyloid-beta precursor protein (APP); test: Western blot of APP in Alzheimer's disease in vitro model (SH-SY5Y cells transfected with pcDNA3-APPswe); format: cell-based, human; settings: Example 124 100 uM, harvested 24 h after treatment, FIG. 7
Procedure: In the present invention, the amyloid-beta precursor protein (APP) reduction effect of the compound of Example 124 in an In Vitro model of Alzheimer's disease (AD) was confirmed.
SH-SY5Y, a human neuroblastoma cell line, was used, and when the pcDNA3-APPswe vector was transfected, these cells generate an AD-inducing APP.
SH-SY5Y cells were incubated in DMEM with 10% FBS and 1% penicillin/streptomycin. 500,000 cells/well was plated in a 6 well plate and transfected 24 h later.
Cells were transfected with pcDNA3-APPswe or pcDNA3 vectors using Lipofectamine 2000 (Invitrogen). After 4 h incubation, the transfection mixture (Lipofectamine+Vector) was replaced with 10% FBS in DMEM. compound of Example 124 (100 uM) or vehicle was treated in 20 h after transfection.
Cells were harvested 24 h after the compound of Example 124 treatments. Cells were washed twice with ice-cold PBS and lysed in RIPA buffer (1% Triton X-100, 0.5% deoxycholic acid, 0.2% SDS, 150 mM sodium chloride, 2 mM EDTA) with 1 mM PMSF, 2 ug/ml aprotinin, 10 ug/ml leupeptin, and 10 mM sodium fluoride.
The lysate was passed several times through a 26½-gauge syringe needle and centrifuged at 16,200*g for 20 min. The supernatant was quantified with the Bradford assay. 30 ug of protein samples, separated by SDS-PAGE, were transferred to the PVDF membrane. […]

[5] = system: rotenone-induced Parkinson's disease model mice; test: Pole test in rotenone-induced Parkinson's disease model mice; format: in vivo, C57BL/6 mice; settings: rotenone 30 mg/kg orally, Example 124 40 mg/kg IP once a day for 35 days; vs rotenone group; not significantly; FIG. 1(B-C)
Procedure: as §5, §1, §2, §6
Pole test was performed using the Parkinson's disease model mice of Biological Experiment Example 1 as follows. […] Each trial was recorded through the camera locating in front of the pole. The time mice turned upside down (head down) and the time it completely climbs down the pole was measured through a recorded video file manually by using the software Boris. Results from manually counted files were scored and presented.

[6] = system: phosphorylated tau (p-Tau s262); test: Western blotting of phosphorylated tau (p-Tau s262) in rotenone mice; format: in vivo, C57BL/6 mice; settings: Example 124-rotenone-treated group vs rotenone-vehicle group; not significantly; FIG. 4
Procedure: as §1, §2, §3, §4

Iba-1-positive microglia = test: Iba-1 immunohistochemistry, activation level of microglia in striatum of rotenone mice; format: in vivo, C57BL/6 mice
Procedure: as §1, §2
(§7) Specifically, mice of Biological Experiment Example 1 were anesthetized with sevoflurane and perfused with PBS (phosphate-buffered saline). […]
(§8) To determine whether the compound of Example 124 affects regulating the activities of Rotenone-induced reactive astrocyte and microglia, in the present invention, obtained images of brain tissues stained with GFAP (Astrocyte marker) and Iba-1(microglia marker) antibodies. Through acquired images analyzed the activation level of astrocytes and microglia respectively by measuring fluorescent intensity. […]
(§9) All the images were taken using a fluorescence microscope (Leica DM LB2). […] The signal intensity of GFAP and Iba-1 was measured in the chosen fields of the equal area using Image J.

[7] = system: TH+ neurons (dopaminergic neurons); test: Immunohistochemistry with tyrosine hydroxylase (TH) antibody, counting of TH+ neurons in rotenone mice; format: in vivo, C57BL/6 mice; settings: rotenone 30 mg/kg orally, Example 124 40 mg/kg IP once a day for 35 days, FIG. 3(A-B)
Procedure: as §1, §2
Dopaminergic neuron loss has been implicated in motor dysfunction in Parkinson's disease. In the present invention, stained the striatum with Tyrosine hydroxylase (TH) antibody to check out whether compound of Example 124 prevents the TH+ neuron cell death by rotenone.
as §7
All the images were taken using a fluorescence microscope (Leica DM LB2). To determine the loss of TH positive neurons and the prevention effect of the compound of Example 124 in the striatum, TH+ neurons were counted by using a cell counter plugin from ImageJ software (NIH).
Immunofluorescence images were analyzed using one-way ANOVA and post hoc analysis using Tukey's post hoc test (GraphPad Prism). […]

Amyloid-beta (Aβ) [8] = test: Immunofluorescence of amyloid-beta in primary cultured cortical neurons; format: cell-based; settings: primary cortical neurons treated with amyloid-beta and Example 124 (4 uM) together; FIG. 8
Procedure: Primary cortical neurons were harvested from the E12-14 embryo. Briefly, isolated cortices were incubated for 20 min at 37° C. in HBSS with 0.25% trypsin-EDTA, 0.1% DNase I. The cortices were dissociated by trituration in NBA media (Neurobasal medium with 2% B27, 2 mM 1-glutamine, and 1% penicillin/streptomycin). Cells were plated in poly-D-lysine coated 24-well plates at 50,000 cells/well. After 3 days of culture, Amyloid-beta and compound of Example 124 (4 uM) were treated.
Cortical neurons were fixed for 15 min at room temperature with 4% paraformaldehyde and 4% sucrose in PBS solution. Fixed neurons were incubated with blocking buffer (3% goat serum, 3% BSA in PBS-T (0.15% Triton-X100)) for 30 min at room temperature. After labeling with a primary antibody, cells were incubated with Alexa Fluor 488- or 568-conjugated secondary antibody. Aβ (6e10, Covance, 1:3000) and NeuN (abl77487, Abcam, 1:2000) were used as primary antibody.

[9] = system: Acetylated alpha-tubulin (Ace-α-tubulin); test: Western blotting of acetylated alpha-tubulin in rotenone mice; format: in vivo, C57BL/6 mice; settings: Example 124-rotenone-treated group; differences between groups not significant; FIG. 4
Procedure: as §1, §2, §3, §4

Amyloid-beta (Aβ) [10] = test: Anti-Aβ staining of brain tissue sections (choroid plexus cells) of treated mice; format: in vivo, C57BL/6 mice; settings: orally administered for 6 weeks; vs vehicle (30% PEG400) mice; FIG. 9
Procedure: Amyloid-beta (Aβ) is a substance that is naturally produced and degraded In Vivo. Therefore, in the present invention, it was attempted to determine whether Amyloid-beta production was reduced in the compound of Example 124-treated mice.
C57BL/6 mice were purchased from Samtako bio Korea Co. Ltd (Osan, Korea.) Mice were housed in the room which offers a 12 hours light/dark cycle with a temperature of 20˜22° C. All experiments and animal care were approved by the Institutional Animal Care and Use Committee of Chonnam National University (Korea).
Mice were divided into a vehicle mice group and a drug-treated group, and then the vehicle (30% PEG400) or compound of Example 124 was orally administered for 6 weeks.
Mice were anesthetized with sevoflurane and perfused with PBS. After perfusion, the right hemisphere brain was fixed with 4% paraformaldehyde for one day. The frozen brains were sectioned at 30 um thickness. The tissue sections were blocked with 3% Goat serum and 3% BSA in cold PBS-T (0.15% Tx-100) for 30 min. Sections were then stained using anti-Aβ (ab5078p, millipore) 1:3000 in PBS. After 3 days of primary antibody labeling, sections were incubated with an Alexa Fluor 568 conjugated secondary antibody for 1 day. For each mouse, 8-10 tissue sections were quantified, and the Aβ intensity was measure at 15 choroid plexus cells. The measurement was done using Image J software.

GFAP-positive astrocytes = test: GFAP immunohistochemistry, activation level of astrocytes in striatum of rotenone mice; format: in vivo, C57BL/6 mice; settings: rotenone 30 mg/kg orally, Example 124 40 mg/kg IP once a day for 35 days, FIG. 6
Procedure: as §1, §2, §7, §8, §9

CO[C@@H](c1ccccc1Cl)[C@H](C)OC(N)=O [Example 124, 1-(2-chlorophenyl)-(S)-1-methoxypropyl-(S)-2-carbamate]
tyrosine hydroxylase (TH) expression (TH/B-actin) [1]: increased | stride length of forepaw ([2]; FIG. 2(A)): ameliorated | stride length of hind paw ([2]; FIG. 2(B)): ameliorated | accumulation of α-synuclein in the soma (p-α-synuclein inclusions in TH+ neurons) [3]: dramatically decreased | amount of APP protein (APP/B-actin) [4]: decreased | pole test: time climbing down the pole / score [5]: slightly attenuated | phosphorylation of tau protein (p-Tau s262) [6]: decreased | efficacy in microglia compared with astrocytes (relative Iba-1 and GFAP intensity) (Iba-1-positive microglia; FIG. 6(C-D)): more dramatic and obvious in microglia than in astrocytes | activation of microglia by rotenone (Iba-1 intensity) (Iba-1-positive microglia; rotenone 30 mg/kg orally, Example 124 40 mg/kg IP once a day for 35 days, FIG. 6): attenuated | rotenone-induced TH+ cell death (number of TH positive cells) [7]: significantly blocked | amount of amyloid-beta (Amyloid-beta (Aβ) [8]): decreased | α-tubulin acetylation levels [9]: increase | amount of endogenous amyloid-beta (Aβ intensity) (Amyloid-beta (Aβ) [10]): reduced | activation of astrocytes by rotenone (GFAP intensity) (GFAP-positive astrocytes): attenuated
